Source: paper PMC3210610, “Studies on Synthesis and Structure-Activity Relationship (SAR) of Derivatives of a New Natural Product from Marine Fungi as Inhibitors of Influenza Virus Neuraminidase” (Marine Drugs, 2011)

Assays:
[1] = biological target: neuraminidase (NA) of A/GuangdongSB/01/2009 (H1N1) (Influenza A virus (A/Managua/5248.03/2009(H1N1)), UniProt E0V7D1); conditions: 0.15 mM 4-MUNANA, MES pH 6.5, 4 mM CaCl2, 37 °C, 1 h preincubation; Figure 2 legend says chemiluminescence assay
[2] = biological target: neuraminidase (NA) of A/Guangdong/05/2009 (H1N1) (Influenza A virus (A/Managua/5248.03/2009(H1N1)), UniProt E0V7D1); conditions: 0.15 mM 4-MUNANA, MES pH 6.5, 4 mM CaCl2, 37 °C, 1 h preincubation; Figure 2 legend says chemiluminescence assay

## C=CCOc1cc(C=O)ccc1O [compound 15, 3-(allyloxy)-4-hydroxybenzaldehyde]
[1]
  IC50: 27 µM
[2]
  IC50: 25.1 µM
